The values below come from ChEMBL document CHEMBL3046917, “Antimicrobial evaluation of 4-methylsulfanyl benzylidene/3-hydroxy benzylidene hydrazides and QSAR studies” (2012).

≈ marks a conversion by molar mass, not a printed value.

Common to all, as to type: functional
Assay [1] has as its system Bacillus subtilis. Description: Bacteriostatic activity against Bacillus subtilis MTCC 2063 after 24 hr by tube dilution method.
The test system of assay [2] is Aspergillus niger. Description: Ratio of MFC to MIC for Aspergillus niger MTCC 8189.
The subject of assay [3] is Bacillus subtilis. The assay is described as follows: Bactericidal activity against Bacillus subtilis MTCC 2063.
Assay [4] has as its system Bacillus subtilis. Description: Ratio of MBC to MIC for Bacillus subtilis MTCC 2063.
Assay [5] has as its system Staphylococcus aureus. Description: Bactericidal activity against Staphylococcus aureus MTCC 2901.
Assay [6] relates to Staphylococcus aureus. The assay is described as follows: Bacteriostatic activity against Staphylococcus aureus MTCC 2901 after 24 hr by tube dilution method.
Assay [7] relates to Candida albicans. The assay is described as follows: Fungicidal activity against Candida albicans MTCC 227.
Assay [8] deals with Escherichia coli. Description: Bacteriostatic activity against Escherichia coli MTCC 1652 after 24 hr by tube dilution method.
Assay [9] relates to Escherichia coli. Description: Bactericidal activity against Escherichia coli MTCC 1652.
Assay [10] concerns Aspergillus niger. The assay is described as follows: Fungistatic activity against Aspergillus niger MTCC 8189 after 7 days by tube dilution method.
Assay [11] concerns Escherichia coli. The assay is described as follows: Ratio of MBC to MIC for Escherichia coli MTCC 1652.
Assay [12] deals with Aspergillus niger. Description: Fungicidal activity against Aspergillus niger MTCC 8189.
The test system of assay [13] is Candida albicans. Description: Ratio of MFC to MIC for Candida albicans MTCC 227.
Assay [14] relates to Staphylococcus aureus. The assay is described as follows: Ratio of MBC to MIC for Staphylococcus aureus MTCC 2901.
For assay [15], the system named is Candida albicans. Description: Fungistatic activity against Candida albicans MTCC 227 after 48 hr by tube dilution method.

For the compound `O=C(/C=C/c1ccccc1)N/N=C/c1cccc(O)c1`, the “-logMIC” value in assay [1] was 1.93; in assay [6], 1.7; in assay [8] it was 1.32; in assay [10], 1.93; in [15], 1.93. In addition, the Ratio in [2], in assay [4], in [11], in assay [13] and in [14] was 3 in each case. Moreover, the minimum bactericidal concentration (MBC) in assay [3], in assay [5] and in [9] was 46 µM (≈ 12.2 µg/mL) throughout. Also, the MFC in assay [7] and in assay [12] was 93 µM (≈ 24.8 µg/mL) in each case.
`COc1ccc(C(=O)N/N=C/c2cccc(O)c2)cc1OC`: the “-logMIC” value in [1] was 1.38; in assay [6] it was 1.98; in assay [8], 1.38; in [10] it was 1.98; in assay [15] it was 1.98. Further, the Ratio in assay [2], in [4], in assay [11], in [13] and in [14] was 3 each time. Also, the minimum bactericidal concentration (MBC) (usually the lowest tested concentration that kills the bacteria rather than only halting them) in assay [3] was more than 166 µM; in assay [5], 83 µM (≈ 24.9 µg/mL); in assay [9], more than 166 µM. Also, the MFC (as a rule, the smallest concentration meeting the test's criterion for killing the fungus) stood at 83 µM (≈ 24.9 µg/mL) in [7] and 41 µM (≈ 12.3 µg/mL) in assay [12].
With `O=C(N/N=C/c1cccc(O)c1)c1cc([N+](=O)[O-])cc([N+](=O)[O-])c1`, the “-logMIC” value in assay [1] turned out to be 1.42; in assay [6], 1.12; in assay [8], 1.42; in assay [10], 2.02; in assay [15], 1.42. Moreover, the Ratio in assay [2], in [4], in assay [11], in assay [13] and in [14] was 3 in each case. Also, the MBC in [3], in [5] and in assay [9] was more than 151 µM each time. Moreover, the minimum fungicidal concentration (MFC) is more than 151 µM in [7] and 37 µM (≈ 12.2 µg/mL) in assay [12].
For the compound `CCCCCCCCCCCC(=O)N/N=C/c1ccc(SC)cc1`, the “-logMIC” value in [1] is recorded as 1.45; in [6] it was 1.3; in assay [8], 1.3; in assay [10] it was 1.25; in assay [15], 1.66. For the same compound, the Ratio in assay [2], in assay [4], in assay [11], in assay [13] and in [14] was 3 in each case. Besides, the MBC in assay [3], in assay [5] and in assay [9] was more than 142 µM throughout. For the same compound, the MFC in assay [7] is more than 142 µM; in assay [12], 71 µM (≈ 24.7 µg/mL).
As to `CCCCCCCCCCCCCC(=O)N/N=C/c1ccc(SC)cc1`, the “-logMIC” value in assay [1] amounted to 2.08; in [6], 0.58; in assay [8] it was 1.48; in assay [10] it was 1.7; in [15] it was 0.58. The Ratio in assay [2], in assay [4], in [11], in assay [13] and in assay [14] was 3 each time. For the same compound, the MBC is 33 µM (≈ 12.4 µg/mL) in [3], more than 132 µM in assay [5] and more than 132 µM in [9]. The MFC in [7] and in assay [12] was more than 132 µM throughout.
For the compound `CCCCCCCCCCCCCCCC(=O)N/N=C/c1ccc(SC)cc1`, the “-logMIC” value in assay [1] was found to be 2.11; in assay [6] it was 1.21; in assay [8] it was 1.81; in assay [10] it was 0.61; in [15], 0.61. Further, the Ratio in [2], in assay [4], in assay [11], in [13] and in assay [14] was 3 each time. Besides, the figures for the minimum bactericidal concentration (MBC) in assay [3], in [5] and in [9] were 61 µM (≈ 24.7 µg/mL), more than 122 µM and 61 µM (≈ 24.7 µg/mL), respectively. In addition, the minimal fungicidal concentration (MFC) in assay [7] and in assay [12] was more than 122 µM each time.
As for `CCCCCCCCCCCCCC(=O)N/N=C/c1cccc(O)c1`, the “-logMIC” value stood at 2.04 in assay [1]; 0.94 in assay [6]; 0.94 in assay [8]; 1.2 in assay [10]; 0.54 in assay [15]. For the same compound, the Ratio in assay [2], in [4], in assay [11], in assay [13] and in assay [14] was 3 each time. In addition, the minimum bactericidal concentration (MBC) was 144 µM (≈ 49.9 µg/mL) in assay [3], more than 144 µM in assay [5] and more than 144 µM in assay [9]. Further, the minimum fungicidal concentration (MFC) in [7] and in assay [12] was more than 144 µM each time.
Consider `CCCCCCCCCCCCCCCC(=O)N/N=C/c1cccc(O)c1`, for which the “-logMIC” value in assay [1] was 1.78; in assay [6] it was 0.99; in assay [8], 1.13; in assay [10] it was 1.2; in [15] it was 0.57. The Ratio in assay [2], in [4], in assay [11], in assay [13] and in [14] was 3 in each case. Also, the minimum bactericidal concentration (MBC) is 133 µM (≈ 49.8 µg/mL) in assay [3], more than 133 µM in assay [5] and more than 133 µM in assay [9]. The MFC in assay [7] and in [12] was more than 133 µM each time.
Consider `CCCCCCCCCCCCCCCCCC(=O)N/N=C/c1cccc(O)c1`, for which the “-logMIC” value is reported as 1.51 in [1]; 1.1 in assay [6]; 1.3 in [8]; 1.51 in assay [10]; 0.6 in assay [15]. The Ratio in assay [2], in assay [4], in assay [11], in assay [13] and in assay [14] was 3 each time. The minimal bactericidal concentration (MBC) is 124 µM (≈ 49.9 µg/mL) in assay [3], more than 124 µM in assay [5] and more than 124 µM in [9]. The MFC in assay [7] and in assay [12] was more than 124 µM each time.
Regarding `C/C=C/C=C/C(=O)N/N=C/c1cccc(O)c1`, the “-logMIC” value in [1] was 1.27; in [6], 0.96; in assay [8], 1.27; in assay [10] it was 1.27; in assay [15], 1.41. Moreover, the Ratio in assay [2], in [4], in assay [11], in assay [13] and in assay [14] was 3 in each case. Further, the minimal bactericidal concentration (MBC) in assay [3] is 217 µM (≈ 50 µg/mL); in [5] it was more than 217 µM; in [9] it was more than 217 µM. Further, the minimum fungicidal concentration (MFC) in [7] and in assay [12] was 217 µM (≈ 50 µg/mL) throughout.
On to `O=C(O)c1cn(C2CC2)c2cc(N3CCNCC3)c(F)cc2c1=O` [CIPROFLOXACIN], for which the “-logMIC” value in assay [1], in [6] and in [8] was 2.61 each time. Further, the MBC in assay [3], in assay [5] and in [9] was 19 µM (≈ 6.3 µg/mL) throughout.
As to `OC(Cn1cncn1)(Cn1cncn1)c1ccc(F)cc1F` [FLUCONAZOLE], the minimal fungicidal concentration (MFC) in assay [7] and in assay [12] was 40 µM (≈ 12.3 µg/mL) in each case. Besides, the “-logMIC” value in [10] and in [15] was 2.64 in each case.
